# Assay results from patent publication US10899753B2, “Inhibiting agents for Bruton's tyrosine kinase” (BIOGEN MA INC., priority 2018, dated 2021).
# Legend:
# BTK [1] = biological target: T1, BTK (Homo sapiens (Human), UniProt Q06187); assay: In Vitro PD Assay in Human Whole Blood (pBTK assay); format: cell-based; conditions: human heparinized whole blood, 37° C. for 30 min, total BTK capture and phosphotyrosine detection (ECL)
# Method: In Vitro PD Assay in Human Whole Blood
# Human heparinized venous blood was purchased from Bioreclamation, Inc. or SeraCare Life Sciences and shipped overnight. Whole blood was aliquoted into 96-well plate and “spiked” with serial dilutions of test compound in DMSO or with DMSO without drug. The final concentration of DMSO in all wells was 0.1%. The plate was incubated at 37° C. for 30 min. Lysis buffer containing protease and phosphatase inhibitors was added to the drug-containing samples and one of the DMSO-only samples (+PPi, high control), while lysis buffer containing protease inhibitors was added to the other DMSO-only samples (−PPi, low control). All of the lysed whole blood samples were subjected to the total BTK capture and phosphotyrosine detection method described in US20160311802, incorporated herein by reference.
# BTK [2] = biological target: T1, BTK; assay: In Vitro BTK Kinase Assay: BTK-POLYGAT-LS ASSAY; format: biochemical; conditions: fluorescein-labeled polyGAT peptide 100 nM, BTK enzyme 0.25 nM, 30 minutes, TRF
# Method: In Vitro BTK Kinase Assay: BTK-POLYGAT-LS ASSAY
# The purpose of the BTK in vitro assay is to determine compound potency against BTK through the measurement of IC50. […] For a typical assay, a […] aliquot of a ATP/peptide master mix (final concentration; ATP […], polyGAT 100 nM) in kinase buffer (10 mM Tris-HCl pH 7.5, 10 mM MgCl2, 200 μM Na3PO4, 5 mM DTT, 0.01% Triton X-100, and 0.2 mg/ml casein) is added to each well. […] The assay is incubated for 30 minutes before being stopped with 28 μL of a 50 mM EDTA solution. […] The plate is covered and incubated for 45 minutes at room temperature. Time resolved fluorescence (TRF) on Molecular Devices M5 (332 nm excitation; 488 nm emission; 518 nm fluorescein emission) is measured.
# T1 sequence (Q06187 whole entry): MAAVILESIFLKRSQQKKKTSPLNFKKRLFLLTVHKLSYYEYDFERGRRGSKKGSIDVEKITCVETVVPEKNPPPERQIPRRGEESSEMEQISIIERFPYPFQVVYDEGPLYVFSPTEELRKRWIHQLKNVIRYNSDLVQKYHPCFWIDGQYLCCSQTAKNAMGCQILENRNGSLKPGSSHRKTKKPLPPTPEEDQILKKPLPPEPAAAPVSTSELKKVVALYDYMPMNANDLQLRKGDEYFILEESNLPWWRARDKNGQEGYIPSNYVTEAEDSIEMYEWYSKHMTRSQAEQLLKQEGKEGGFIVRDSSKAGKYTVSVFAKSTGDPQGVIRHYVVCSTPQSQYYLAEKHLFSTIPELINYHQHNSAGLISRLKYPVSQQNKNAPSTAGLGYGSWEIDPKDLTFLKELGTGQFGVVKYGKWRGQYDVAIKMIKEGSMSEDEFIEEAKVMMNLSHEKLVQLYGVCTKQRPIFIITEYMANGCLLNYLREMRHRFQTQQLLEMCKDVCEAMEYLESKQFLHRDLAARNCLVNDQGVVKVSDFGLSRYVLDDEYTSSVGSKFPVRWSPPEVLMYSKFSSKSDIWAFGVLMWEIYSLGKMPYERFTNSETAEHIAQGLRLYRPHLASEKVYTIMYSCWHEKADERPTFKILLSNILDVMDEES
Compound,IC50 (BTK [1]) [nM],IC50 (BTK [2]) [nM]
"Cn1cc(Nc2ncnc(-c3ccc4c(c3)CN(CC(F)(F)F)CC[C@H]4NC(=O)c3nc(C(C)(C)C)co3)n2)cn1 [Compound 93, 4-tert-butyl-N-[(5R)-8-[4-[(1-methylpyrazol-4-yl)amino]-1,3,5-triazin-2-yl]-2-(2,2,2-trifluoroethyl)-1,3,4,5-tetrahydro-2-benzazepin-5-yl]oxazole-2-carboxamide]",< 100,< 1
"Cn1ccc(Nc2ncnc(-c3ccc4c(c3F)CCCC[C@H]4NC(=O)c3noc(C(C)(C)C)n3)n2)n1 [Compound 111, (R)-5-(tert-butyl)-N-(1-fluoro-2-(4-((1-methyl-1H-pyrazol-3-yl)amino)-1,3,5-triazin-2-yl)-6,7,8,9-tetrahydro-5H-benzo[7]annulen-5-yl)-1,2,4-oxadiazole-3-carboxamide]",100 to 500,< 1
"Cc1cc(-c2ncnc(Nc3ccn(C)n3)n2)ccc1CNC(=O)c1cnc(C(C)(C)C)o1 [Compound 3, 2-(tert-butyl)-N-(2-methyl-4-(4-((1-methyl-1H-pyrazol-3-yl)amino)-1,3,5-triazin-2-yl)benzyl)oxazole-5-carboxamide]",500 to 10000,1 to 10
"Cc1cc(-c2ncnc(Nc3cnn(C)c3)n2)ccc1CNC(=O)c1cc(C(C)(C)C)no1 [Compound 108, 3-(tert-butyl)-N-(2-methyl-4-(4-((1-methyl-1H-pyrazol-4-yl)amino)-1,3,5-triazin-2-yl)benzyl)isoxazole-5-carboxamide]",100 to 500,< 1
"Cc1cc(-c2ncnc(Nc3ccn(C)n3)n2)ccc1CNC(=O)c1cc(C(C)(C)C)no1 [Compound 43, 3-(tert-butyl)-N-(2-methyl-4-(4-((1-methyl-1H-pyrazol-3-yl)amino)-1,3,5-triazin-2-yl)benzyl)isoxazole-5-carboxamide]",500 to 10000,1 to 10
"Cc1c(-c2ncnc(Nc3cnn(C)c3)n2)ccc([C@@H](C)NC(=O)c2noc(C(C)(C)C)n2)c1Cl [Compound 77, (R)-5-(tert-butyl)-N-(1-(2-chloro-3-methyl-4-(4-((1-methyl-1H-pyrazol-4-yl)amino)-1,3,5-triazin-2-yl)phenyl)ethyl)-1,2,4-oxadiazole-3-carboxamide]",100 to 500,< 1
"Cc1c(CNC(=O)c2nn(C(C)(C)C)cc2F)ccc(-c2ncnc(Nc3cnn(C)c3)n2)c1F [Compound 27, 1-(tert-butyl)-4-fluoro-N-(3-fluoro-2-methyl-4-(4-((1-methyl-1H-pyrazol-4-yl)amino)-1,3,5-triazin-2-yl)benzyl)-1H-pyrazole-3-carboxamide]",100 to 500,< 1
"Cn1ccc(Nc2ncnc(-c3ccc4c(c3)CN(C3COC3)CC[C@H]4NC(=O)c3coc(C(C)(C)C)n3)n2)n1 [Compound 94, (R)-2-(tert-butyl)-N-(8-(4-((1-methyl-1H-pyrazol-3-yl)amino)-1,3,5-triazin-2-yl)-2-(oxetan-3-yl)-2,3,4,5-tetrahydro-1H-benzo[c]azepin-5-yl)oxazole-4-carboxamide]",100 to 500,1 to 10
"Cn1cc(Nc2ncnc(-c3ccc(CNC(=O)c4coc(C(C)(C)C)n4)c(Cl)c3F)n2)cn1 [Compound 103, 2-(tert-butyl)-N-(2-chloro-3-fluoro-4-(4-((1-methyl-1H-pyrazol-4-yl)amino)-1,3,5-triazin-2-yl)benzyl)oxazole-4-carboxamide]",100 to 500,< 1
"Cn1ccc(Nc2ncnc(-c3ccc4c(c3F)CCCC[C@H]4NC(=O)c3coc(C(C)(C)C)n3)n2)n1 [Compound 112, (R)-2-(tert-butyl)-N-(1-fluoro-2-(4-((1-methyl-1H-pyrazol-3-yl)amino)-1,3,5-triazin-2-yl)-6,7,8,9-tetrahydro-5H-benzo[7]annulen-5-yl)oxazole-4-carboxamide]",500 to 10000,< 1
"Cc1c(CNC(=O)c2noc(C(C)(C)CF)n2)ccc(-c2ncnc(Nc3ccn(C)n3)n2)c1F [Compound 45, N-(3-fluoro-2-methyl-4-(4-((1-methyl-1H-pyrazol-3-yl)amino)-1,3,5-triazin-2-yl)benzyl)-5-(1-fluoro-2-methylpropan-2-yl)-1,2,4-oxadiazole-3-carboxamide]",100 to 500,< 1
"Cn1ccc(Nc2ncnc(-c3ccc4c(c3)CCCC[C@H]4NC(=O)c3noc(C(C)(C)CF)n3)n2)n1 [Compound 53, (R)-5-(1-fluoro-2-methylpropan-2-yl)-N-(2-(4-((1-methyl-1H-pyrazol-3-yl)amino)-1,3,5-triazin-2-yl)-6,7,8,9-tetrahydro-5H-benzo[7]annulen-5-yl)-1,2,4-oxadiazole-3-carboxamide]",100 to 500,< 1
"C[C@@H](NC(=O)c1noc(C(C)(C)C)n1)c1ccc(-c2ncnc(Nc3ccn(C)n3)n2)c(F)c1Cl [Compound 101, (R)-5-(tert-butyl)-N-(1-(2-chloro-3-fluoro-4-(4-((1-methyl-1H-pyrazol-3-yl)amino)-1,3,5-triazin-2-yl)phenyl)ethyl)-1,2,4-oxadiazole-3-carboxamide]",500 to 10000,< 1
"Cc1cc(-c2ncnc(Nc3cnn(C)c3)n2)c(F)cc1CNC(=O)c1cn(C(C)(C)C)nn1 [Compound 62, 1-(tert-butyl)-N-(5-fluoro-2-methyl-4-(4-((1-methyl-1H-pyrazol-4-yl)amino)-1,3,5-triazin-2-yl)benzyl)-1H-1,2,3-triazole-4-carboxamide]",500 to 10000,1 to 10
"Cc1c(-c2ncnc(Nc3ccn(C)n3)n2)ccc([C@@H](C)NC(=O)c2noc(C(C)(C)C)n2)c1Cl [Compound 79, (R)-5-(tert-butyl)-N-(1-(2-chloro-3-methyl-4-(4-((1-methyl-1H-pyrazol-3-yl)amino)-1,3,5-triazin-2-yl)phenyl)ethyl)-1,2,4-oxadiazole-3-carboxamide]",500 to 10000,1 to 10
"Cc1c([C@@H](C)NC(=O)c2cc(C(C)(C)C)on2)ccc(-c2ncnc(Nc3cnn(C)c3)n2)c1F [Compound 76, (R)-5-(tert-butyl)-N-(1-(3-fluoro-2-methyl-4-(4-((1-methyl-1H-pyrazol-4-yl)amino)-1,3,5-triazin-2-yl)phenyl)ethyl)isoxazole-3-carboxamide]",100 to 500,< 1
"Cn1ccc(Nc2ncnc(-c3ccc4c(c3)CN(CC(F)(F)F)CC[C@H]4NC(=O)c3coc(C(C)(C)C)n3)n2)n1 [Compound 95, (R)-2-(tert-butyl)-N-(8-(4-((1-methyl-1H-pyrazol-3-yl)amino)-1,3,5-triazin-2-yl)-2-(2,2,2-trifluoroethyl)-2,3,4,5-tetrahydro-1H-benzo[c]azepin-5-yl)oxazole-4-carboxamide]",500 to 10000,< 1
"Cn1ccc(Nc2ncnc(-c3cc4c(cc3F)[C@H](NC(=O)c3noc(C(C)(C)C)n3)CCCC4)n2)n1 [Compound 84, (R)-5-(tert-butyl)-N-(3-fluoro-2-(4-((1-methyl-1H-pyrazol-3-yl)amino)-1,3,5-triazin-2-yl)-6,7,8,9-tetrahydro-5H-benzo[7]annulen-5-yl)-1,2,4-oxadiazole-3-carboxamide]",100 to 500,< 1
"Cn1cc(Nc2ncnc(-c3ccc(CNC(=O)c4nc(C(C)(C)C)no4)c(Cl)c3)n2)cn1 [Compound 16, 3-(tert-butyl)-N-(2-chloro-4-(4-((1-methyl-1H-pyrazol-4-yl)amino)-1,3,5-triazin-2-yl)benzyl)-1,2,4-oxadiazole-5-carboxamide]",100 to 500,< 1
"Cc1cc(-c2ncnc(Nc3cnn(C)c3)n2)c(F)cc1CNC(=O)c1cnn(C(C)(C)C)c1 [Compound 61, 1-(tert-butyl)-N-(5-fluoro-2-methyl-4-(4-((1-methyl-1H-pyrazol-4-yl)amino)-1,3,5-triazin-2-yl)benzyl)-1H-pyrazole-4-carboxamide]",100 to 500,< 1
"Cc1c(CNC(=O)c2ncc(C(C)(C)C)o2)ccc(-c2ncnc(Nc3cnn(C)c3)n2)c1F [Compound 31, 5-(tert-butyl)-N-(3-fluoro-2-methyl-4-(4-((1-methyl-1H-pyrazol-4-yl)amino)-1,3,5-triazin-2-yl)benzyl)oxazole-2-carboxamide]",500 to 10000,< 1
"Cn1ccc(Nc2ncnc(-c3ccc4c(c3)CN(C3COC3)CC[C@H]4NC(=O)c3nc(C(C)(C)C)no3)n2)n1 [Compound 98, (R)-3-(tert-butyl)-N-(8-(4-((1-methyl-1H-pyrazol-3-yl)amino)-1,3,5-triazin-2-yl)-2-(oxetan-3-yl)-2,3,4,5-tetrahydro-1H-benzo[c]azepin-5-yl)-1,2,4-oxadiazole-5-carboxamide]",100 to 500,< 1
"Cn1ccc(Nc2ncnc(-c3ccc(CNC(=O)c4nc(C(C)(C)C)no4)c(Cl)c3)n2)n1 [Compound 6, 3-(tert-butyl)-N-(2-chloro-4-(4-((1-methyl-1H-pyrazol-3-yl)amino)-1,3,5-triazin-2-yl)benzyl)-1,2,4-oxadiazole-5-carboxamide]",500 to 10000,< 1
